Data: the supplement of paper PMC10307832

Columns and labels:
Assay in all cases: relative viability (nuclei count vs DMSO), 5 days (fraction); higher = more cells survive
A-427 = system: A-427
Outline: (§1)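 Nuclei were stained with Hoechst during a one-step fixation (final 0.05% Triton X-100, 1% formaldehyde, 1 ug/ml Hoechst) carried out 5 days after dosing, then counted on 4× images. The cells, lung cancer lines in 1536-well plates, had been dosed by pin tool the day after seeding with one drug alone or a fixed anchor-drug dose plus five library-drug doses (not always all listed) in √10 steps. Relative viability is the nuclei count in treated wells divided by that in vehicle wells, and each value is the median of duplicate plates.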

NCI-H460 = system: NCI-H460
Outline: as §1

NCI-H522 = system: NCI-H522
Outline: as §1

NCI-H1395 = system: NCI-H1395
Outline: as §1

COR-L 105 = system: COR-L 105
Outline: as §1

NCI-H2009 = system: NCI-H2009
Outline: as §1

NCI-H727 = system: NCI-H727
Outline: as §1

NCI-H1792 = system: NCI-H1792
Outline: as §1

SW 1573 = system: SW 1573
Outline: as §1

NCI-H1355 = system: NCI-H1355
Outline: as §1

NCI-H1975 = system: NCI-H1975
Outline: as §1

SK-LU-1 = system: SK-LU-1
Outline: as §1

HCC-827 = system: HCC-827
Outline: as §1

HARA = system: HARA
Outline: as §1

EMC-BAC-2 = system: EMC-BAC-2
Outline: as §1

NCI-H1437 = system: NCI-H1437
Outline: as §1

LCLC-103H = system: LCLC-103H
Outline: as §1

HOP-62 = system: HOP-62
Outline: as §1

CAL-12T = system: CAL-12T
Outline: as §1

NCI-H1915 = system: NCI-H1915
Outline: as §1

NCI-H23 = system: NCI-H23
Outline: as §1

NCI-H1755 = system: NCI-H1755
Outline: as §1

NCI-H2228 = system: NCI-H2228
Outline: as §1

SMILES: Clc1ccc(Nc2nnc(Cc3ccncc3)c3ccccc23)cc1 [Vatalanib] + CCNC(=O)c1noc(-c2cc(C(C)C)c(O)cc2O)c1-c1ccc(CN2CCOCC2)cc1 [Luminespib] (partner 0.01 µM)
- relative viability (A-427; first compound 0.04 µM): 0.861
- relative viability (A-427; first compound 0.1265 µM): 0.909
- relative viability (A-427; first compound 0.4 µM): 1.03
- relative viability (A-427; first compound 1.265 µM): 0.927
- relative viability (A-427; first compound 4 µM): 0.948
- relative viability (NCI-H460; first compound 0.04 µM): 0.0407
- relative viability (NCI-H460; first compound 0.1265 µM): 0.0276
- relative viability (NCI-H460; first compound 0.4 µM): 0.0374
- relative viability (NCI-H460; first compound 1.265 µM): 0.0261
- relative viability (NCI-H460; first compound 4 µM): 0.0364
- relative viability (NCI-H522; first compound 0.04 µM): 1.02
- relative viability (NCI-H522; first compound 0.1265 µM): 1.23
- relative viability (NCI-H522; first compound 0.4 µM): 1.2
- relative viability (NCI-H522; first compound 1.265 µM): 1.15
- relative viability (NCI-H522; first compound 4 µM): 1.1
- relative viability (NCI-H1395; first compound 0.04 µM): 0.668
- relative viability (NCI-H1395; first compound 0.1265 µM): 0.65
- relative viability (NCI-H1395; first compound 0.4 µM): 0.834
- relative viability (NCI-H1395; first compound 1.265 µM): 0.66
- relative viability (NCI-H1395; first compound 4 µM): 0.674
- relative viability (COR-L 105; first compound 0.04 µM): 0.814
- relative viability (COR-L 105; first compound 0.1265 µM): 0.7
- relative viability (COR-L 105; first compound 0.4 µM): 0.877
- relative viability (COR-L 105; first compound 1.265 µM): 0.843
- relative viability (COR-L 105; first compound 4 µM): 0.74
- relative viability (NCI-H2009; first compound 0.04 µM): 1.11
- relative viability (NCI-H2009; first compound 0.1265 µM): 0.983
- relative viability (NCI-H2009; first compound 0.4 µM): 1.06
- relative viability (NCI-H2009; first compound 1.265 µM): 0.962
- relative viability (NCI-H2009; first compound 4 µM): 1.04
- relative viability (NCI-H727; first compound 0.04 µM): 0.339
- relative viability (NCI-H727; first compound 0.1265 µM): 0.289
- relative viability (NCI-H727; first compound 0.4 µM): 0.329
- relative viability (NCI-H727; first compound 1.265 µM): 0.635
- relative viability (NCI-H727; first compound 4 µM): 0.392
- relative viability (NCI-H1792; first compound 0.04 µM): 0.475
- relative viability (NCI-H1792; first compound 0.1265 µM): 0.492
- relative viability (NCI-H1792; first compound 0.4 µM): 0.4
- relative viability (NCI-H1792; first compound 1.265 µM): 0.564
- relative viability (NCI-H1792; first compound 4 µM): 0.387
- relative viability (SW 1573; first compound 0.04 µM): 0.425
- relative viability (SW 1573; first compound 0.1265 µM): 0.321
- relative viability (SW 1573; first compound 0.4 µM): 0.302
- relative viability (SW 1573; first compound 1.265 µM): 0.437
- relative viability (SW 1573; first compound 4 µM): 0.264
- relative viability (NCI-H1355; first compound 0.04 µM): 0.74
- relative viability (NCI-H1355; first compound 0.1265 µM): 0.675
- relative viability (NCI-H1355; first compound 0.4 µM): 0.748
- relative viability (NCI-H1355; first compound 1.265 µM): 0.656
- relative viability (NCI-H1355; first compound 4 µM): 0.738
- relative viability (NCI-H1975; first compound 0.04 µM): 0.154
- relative viability (NCI-H1975; first compound 0.1265 µM): 0.238
- relative viability (NCI-H1975; first compound 0.4 µM): 0.237
- relative viability (NCI-H1975; first compound 1.265 µM): 0.29
- relative viability (NCI-H1975; first compound 4 µM): 0.177
- relative viability (SK-LU-1; first compound 0.04 µM): 0.21
- relative viability (SK-LU-1; first compound 0.1265 µM): 0.197
- relative viability (SK-LU-1; first compound 0.4 µM): 0.241
- relative viability (SK-LU-1; first compound 1.265 µM): 0.218
- relative viability (SK-LU-1; first compound 4 µM): 0.232
- relative viability (HCC-827; first compound 0.04 µM): 0.53
- relative viability (HCC-827; first compound 0.1265 µM): 0.614
- relative viability (HCC-827; first compound 0.4 µM): 0.494
- relative viability (HCC-827; first compound 1.265 µM): 0.638
- relative viability (HCC-827; first compound 4 µM): 0.611
- relative viability (HARA; first compound 0.04 µM): 0.682
- relative viability (HARA; first compound 0.1265 µM): 0.617
- relative viability (HARA; first compound 0.4 µM): 0.669
- relative viability (HARA; first compound 1.265 µM): 0.738
- relative viability (HARA; first compound 4 µM): 0.591
- relative viability (EMC-BAC-2; first compound 0.04 µM): 1.16
- relative viability (EMC-BAC-2; first compound 0.1265 µM): 1.13
- relative viability (EMC-BAC-2; first compound 0.4 µM): 1.34
- relative viability (EMC-BAC-2; first compound 1.265 µM): 1.09
- relative viability (EMC-BAC-2; first compound 4 µM): 1.15
- relative viability (NCI-H1437; first compound 0.04 µM): 1.21
- relative viability (NCI-H1437; first compound 0.1265 µM): 1.19
- relative viability (NCI-H1437; first compound 0.4 µM): 1.13
- relative viability (NCI-H1437; first compound 1.265 µM): 1.12
- relative viability (NCI-H1437; first compound 4 µM): 1.14
- relative viability (LCLC-103H; first compound 0.04 µM): 0.961
- relative viability (LCLC-103H; first compound 0.1265 µM): 0.878
- relative viability (LCLC-103H; first compound 0.4 µM): 0.967
- relative viability (LCLC-103H; first compound 1.265 µM): 0.969
- relative viability (LCLC-103H; first compound 4 µM): 1
- relative viability (HOP-62; first compound 0.04 µM): 0.928
- relative viability (HOP-62; first compound 0.1265 µM): 0.925
- relative viability (HOP-62; first compound 0.4 µM): 0.895
- relative viability (HOP-62; first compound 1.265 µM): 0.883
- relative viability (HOP-62; first compound 4 µM): 0.959
- relative viability (CAL-12T; first compound 0.04 µM): 0.722
- relative viability (CAL-12T; first compound 0.1265 µM): 0.406
- relative viability (CAL-12T; first compound 0.4 µM): 0.502
- relative viability (CAL-12T; first compound 1.265 µM): 0.255
- relative viability (CAL-12T; first compound 4 µM): 0.513
- relative viability (NCI-H1915; first compound 0.04 µM): 0.847
- relative viability (NCI-H1915; first compound 0.1265 µM): 0.7
- relative viability (NCI-H1915; first compound 0.4 µM): 0.828
- relative viability (NCI-H1915; first compound 1.265 µM): 0.846
- relative viability (NCI-H1915; first compound 4 µM): 0.758
- relative viability (NCI-H23; first compound 0.04 µM): 0.229
- relative viability (NCI-H23; first compound 0.1265 µM): 0.213
- relative viability (NCI-H23; first compound 0.4 µM): 0.227
- relative viability (NCI-H23; first compound 1.265 µM): 0.19
- relative viability (NCI-H23; first compound 4 µM): 0.205
- relative viability (NCI-H1755; first compound 0.04 µM): 0.419
- relative viability (NCI-H1755; first compound 0.1265 µM): 0.439
- relative viability (NCI-H1755; first compound 0.4 µM): 0.556
- relative viability (NCI-H1755; first compound 1.265 µM): 0.316
- relative viability (NCI-H1755; first compound 4 µM): 0.453
- relative viability (NCI-H2228; first compound 0.04 µM): 0.145
- relative viability (NCI-H2228; first compound 0.1265 µM): 0.102
- relative viability (NCI-H2228; first compound 0.4 µM): 0.163
- relative viability (NCI-H2228; first compound 1.265 µM): 0.115
- relative viability (NCI-H2228; first compound 4 µM): 0.157
